Measured values: ChEMBL document CHEMBL5584339, “Design, Synthesis, and Evaluation of the Antitubercular Activity of 5-Phenyl Substituted-5, 6-dihydropyrido[2, 3-d]pyrimidine-4, 7(3H, 8H)-dione Compounds” (J Med Chem, 2024)
Values after ≈ are worked out from the molar mass of the structure shown. Active and inactive are the calls of the source. The rule behind the calls is not given here.

Columns and labels:
[1] = tested on: Mycobacterium tuberculosis; test: Antitubercular activity against Mycobacterium tuberculosis H37Rv incubated for 7 days by alamar blue assay; format: functional; settings: 168 h, time 7 day
[2] = Cytotoxicity against african green monkey Vero cells incubated for 48 hrs by CCK8 assay; format: toxicity, cell-based, Chlorocebus sabaeus
[3] = Selectivity index, ratio of IC50 for african green monkey Vero cells to IC50 for Mycobacterium tuberculosis H37Rv; format: toxicity; settings: read-out: Ratio IC50
Mycobacterium marinum [4] = test: Antitubercular activity against Mycobacterium marinum infected in adult zebrafish assessed as reduction in bacterial count by measuring CFU at 100 uM measured over 10 days; format: functional; settings: time 10 day
Mycobacterium marinum [5] = test: Antitubercular activity against Mycobacterium marinum infected in adult zebrafish assessed as reduction in bacterial count by measuring CFU at 400 uM measured over 10 days; format: functional; settings: time 10 day
[6] = Cytotoxicity against HK-2 cells incubated for 48 hrs by CCK8 assay; format: toxicity, cell-based; settings: human
[7] = target: Voltage-gated inwardly rectifying potassium channel KCNH2 (Homo sapiens, UniProt Q12809); test: Inhibition of human ERG expressed in HEK293 cells by whole cell manual patch clamp method; format: toxicity, cell-based
[8] = Metabolic stability in mouse liver microsomes assessed as substrate remaining at 2 uM preincubated for 60 mins followed by NADPH addition and measured upto 60 mins by LC-MS analysis; format: ADME, Microsome; settings: time < 120 min, read-out: Stability
[9] = Metabolic stability in mouse liver microsomes assessed as half-life at 2 uM preincubated for 60 mins followed by NADPH addition and measured upto 60 mins by LC-MS analysis; format: ADME, Microsome; settings: time < 120 min
[10] = Metabolic stability in mouse liver microsomes assessed as intrinsic clearance per mg protein at 2 uM preincubated for 60 mins followed by NADPH addition and measured upto 60 mins by LC-MS analysis; format: ADME, Microsome; settings: time < 120 min, read-out: CLH
[11] = Metabolic stability in human liver microsomes assessed as substrate remaining at 2 uM preincubated for 60 mins followed by NADPH addition and measured upto 60 mins by LC-MS analysis; format: ADME, Microsome; settings: time < 120 min, read-out: Stability
[12] = Metabolic stability in human liver microsomes assessed as half-life at 2 uM preincubated for 60 mins followed by NADPH addition and measured upto 60 mins by LC-MS analysis; format: ADME, Microsome; settings: time < 120 min
[13] = Metabolic stability in human liver microsomes assessed as intrinsic clearance per mg protein at 2 uM preincubated for 60 mins followed by NADPH addition and measured upto 60 mins by LC-MS analysis; format: ADME, Microsome; settings: time < 120 min, read-out: CLH
[14] = Observed clearance in BALB/c mouse at 5 mg/kg, iv measured upto 24 hrs by LC-MS/MS analysis; format: ADME, organism-based; settings: in vivo
[15] = Half-life in BALB/c mouse at 5 mg/kg, iv measured upto 24 hrs by LC-MS/MS analysis; format: ADME, organism-based; settings: in vivo
[16] = Half-life in BALB/c mouse at 30 mg/kg, po measured upto 24 hrs by LC-MS/MS analysis; format: ADME, organism-based; settings: in vivo
[17] = Tmax in BALB/c mouse at 30 mg/kg, po measured upto 24 hrs by LC-MS/MS analysis; format: ADME, organism-based; settings: in vivo
[18] = Initial plasma concentration in BALB/c mouse at 5 mg/kg, iv measured upto 24 hrs by LC-MS/MS analysis; format: ADME, organism-based
[19] = Cmax in BALB/c mouse at 30 mg/kg, po measured upto 24 hrs by LC-MS/MS analysis; format: ADME, organism-based; settings: in vivo
[20] = AUClast in BALB/c mouse at 5 mg/kg, iv measured upto 24 hrs by LC-MS/MS analysis; format: ADME, organism-based; settings: in vivo
[21] = AUClast in BALB/c mouse at 30 mg/kg, po measured upto 24 hrs by LC-MS/MS analysis; format: ADME, organism-based; settings: in vivo
[22] = AUCinfinity in BALB/c mouse at 5 mg/kg, iv measured upto 24 hrs by LC-MS/MS analysis; format: ADME, organism-based; settings: in vivo
[23] = AUCinfinity in BALB/c mouse at 30 mg/kg, po measured upto 24 hrs by LC-MS/MS analysis; format: ADME, organism-based; settings: in vivo
[24] = Observed extrapolated AUC in BALB/c mouse at 5 mg/kg, iv measured upto 24 hrs by LC-MS/MS analysis; format: ADME, organism-based; settings: in vivo
[25] = Observed extrapolated AUC in BALB/c mouse at 30 mg/kg, po measured upto 24 hrs by LC-MS/MS analysis; format: ADME, organism-based; settings: in vivo
[26] = Observed mean residence time infinity in BALB/c mouse at 5 mg/kg, iv measured upto 24 hrs by LC-MS/MS analysis; format: ADME, organism-based; settings: in vivo
[27] = Observed mean residence time infinity in BALB/c mouse at 30 mg/kg, po measured upto 24 hrs by LC-MS/MS analysis; format: ADME, organism-based; settings: in vivo
[28] = Dose normalized AUClast in BALB/c mouse at 5 mg/kg, iv measured upto 24 hrs by LC-MS/MS analysis; format: ADME, organism-based; settings: in vivo
[29] = Dose normalized AUClast in BALB/c mouse at 30 mg/kg, po measured upto 24 hrs by LC-MS/MS analysis; format: ADME, organism-based; settings: in vivo
[30] = Observed volume of distribution at steady state in BALB/c mouse at 5 mg/kg, iv measured upto 24 hrs by LC-MS/MS analysis; format: ADME, organism-based; settings: in vivo, read-out: Vdss
[31] = Oral bioavailability in BALB/c mouse at 30 mg/kg measured upto 24 hrs by LC-MS/MS analysis; format: ADME, organism-based; settings: in vivo
Mycobacterium marinum [32] = test: Antitubercular activity against Mycobacterium marinum infected in zebrafish larvae assessed as increase survival rate at 12.5 to 200 uM measured over 10 days by qPCR analysis; format: functional, organism-based; settings: dose 12.5-200 µM, time 10.0 day
Mycobacterium marinum [33] = test: Antitubercular activity against Mycobacterium […] assessed as bactericidal effect by measuring colony forming unit at 200 uM measured over 10 days; format: functional; settings: time 10 day
Mycobacterium marinum [34] = test: Antitubercular activity against Mycobacterium […] assessed as bactericidal effect by measuring colony forming unit at 100 uM measured over 10 days; format: functional; settings: time 10 day
Mycobacterium marinum [35] = test: Antitubercular activity against Mycobacterium marinum infected in adult zebrafish assessed as reduction in bacterial count by measuring CFU at 50 uM measured over 10 days; format: functional; settings: time 10 day
Mycobacterium marinum [36] = test: Antitubercular activity against Mycobacterium marinum infected in adult zebrafish assessed as reduction in bacterial count by measuring CFU at 200 uM measured over 10 days; format: functional; settings: time 10 day
[37] = Stability in mouse plasma by MS analysis; format: ADME, cell-free
[38] = tested on: Mycobacterium tuberculosis; test: Binding affinity to Mycobacterium tuberculosis AccD5 at 10 uM by SPR analysis

Chain of Voltage-gated inwardly rectifying potassium channel KCNH2 (Q12809 whole entry): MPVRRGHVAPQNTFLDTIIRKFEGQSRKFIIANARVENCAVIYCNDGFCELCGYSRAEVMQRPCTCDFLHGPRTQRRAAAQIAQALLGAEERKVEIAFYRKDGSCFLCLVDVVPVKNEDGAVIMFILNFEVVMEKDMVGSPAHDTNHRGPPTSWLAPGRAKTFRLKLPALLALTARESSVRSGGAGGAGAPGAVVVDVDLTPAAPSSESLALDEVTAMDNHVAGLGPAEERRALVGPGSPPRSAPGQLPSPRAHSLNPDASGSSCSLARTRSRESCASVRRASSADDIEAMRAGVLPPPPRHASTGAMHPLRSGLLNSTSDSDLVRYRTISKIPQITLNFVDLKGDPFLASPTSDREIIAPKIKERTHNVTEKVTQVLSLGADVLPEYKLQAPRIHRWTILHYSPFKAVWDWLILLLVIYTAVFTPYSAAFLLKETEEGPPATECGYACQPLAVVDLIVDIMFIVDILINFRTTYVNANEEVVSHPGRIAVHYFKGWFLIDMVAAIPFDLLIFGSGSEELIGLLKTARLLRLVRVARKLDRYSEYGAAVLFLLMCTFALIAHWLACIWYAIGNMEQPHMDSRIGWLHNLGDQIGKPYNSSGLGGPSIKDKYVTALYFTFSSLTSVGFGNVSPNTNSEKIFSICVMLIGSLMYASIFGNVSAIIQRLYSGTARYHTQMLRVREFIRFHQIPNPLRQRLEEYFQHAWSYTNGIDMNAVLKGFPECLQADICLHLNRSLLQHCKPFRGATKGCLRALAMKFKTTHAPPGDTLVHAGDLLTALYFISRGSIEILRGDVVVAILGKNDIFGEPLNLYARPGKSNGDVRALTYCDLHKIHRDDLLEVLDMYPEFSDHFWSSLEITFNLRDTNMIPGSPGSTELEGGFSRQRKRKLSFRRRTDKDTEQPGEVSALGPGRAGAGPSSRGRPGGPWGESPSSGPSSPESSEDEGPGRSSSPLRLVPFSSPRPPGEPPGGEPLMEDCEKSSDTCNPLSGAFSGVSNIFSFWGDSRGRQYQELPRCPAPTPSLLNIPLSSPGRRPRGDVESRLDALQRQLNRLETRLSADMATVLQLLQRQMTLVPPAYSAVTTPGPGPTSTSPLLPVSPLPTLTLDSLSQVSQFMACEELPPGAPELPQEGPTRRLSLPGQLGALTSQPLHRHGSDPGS

Row | Structure (SMILES) | MIC [1] [µg/mL] | IC50 at 48 h [2] [µg/mL] | Activity (Mycobacterium marinum [4]) | IC50 at 48 h [6] [µg/mL] | IC50 [7] [µM] | remaining at 1 h, 2 µM [8] [%] | half-life at 2 µM [9] [h] | microsomal CLint at 2 µM [10] [µL/min/mg] | remaining at 1 h, 2 µM [11] [%] | half-life at 2 µM [12] [h] | microsomal CLint at 2 µM [13] [µL/min/mg] | clearance [14] [mL/min/kg] | half-life [15] [h] | half-life [16] [h] | Tmax [17] [h] | C0 at 24 h [18] [ng/mL] | Cmax [19] [ng/mL] | AUC(0-t) at 24 h [20] [µg·h/mL] | AUC(0-t) at 24 h [21] [µg·h/mL] | AUC(0-inf) [22] [µg·h/mL] | also measured
1 | CO[C@H]1/C=C/O[C@@]2(C)Oc3c(C)c(O)c4c(O)c(c(/C=N/N5CCN(C)CC5)c(O)c4c3C2=O)NC(=O)/C(C)=C\C=C\[C@H](C)[C@H](O)[C@@H](C)[C@@H](O)[C@@H](C)[C@H](OC(C)=O)[C@@H]1C [RIFAMPIN] | 0.02 (≈ 0.0243 µM) | > 100 | 4 10^4CFU |  |  |  |  |  |  |  |  |  |  |  |  |  |  |  |  |  | selectivity ratio [3]: > 5000; Activity (Mycobacterium marinum [5]): 1.5 10^2CFU
2 | CCCSc1nc2c(c(=O)[nH]1)[C@@H](c1ccc(OC)cc1)CC(=O)N2 | 0.06 (≈ 0.174 µM) | > 64 | 8 10^3CFU | 32.5 (≈ 94 µM) | 24.4 | 88.5 | 6.16 | 3.75 | 69.8 | 2 | 11.5 | 0.673 | 7.01 | 5.14 | 0.5 | 45400 | 43300 | 116 | 410 | 125 | AUC(0-inf) [23]: 424 µg·h/mL; %AUCextra [24]: 6.41%; %AUCextra [25]: 3.35%; MRT inf [26]: 7.8 h; MRT inf [27]: 6.85 h; AUClast/dose [28]: 23295 kg·ng·h/mL/mg; AUClast/dose [29]: 13676 kg·ng·h/mL/mg; Vd [30]: 0.312 L/kg; bioavailability [31]: 56.7%; Activity (Mycobacterium marinum [32]): Active; Activity (Mycobacterium marinum [33]): <80 CFU; Activity (Mycobacterium marinum [34]): <80 CFU; Activity (Mycobacterium marinum [35]): 2 10^2CFU; Activity (Mycobacterium marinum [36]): 1.9 10^5CFU
3 | CCCSc1nc2c(c(=O)[nH]1)[C@@H](c1ccc(OC)cc1[N+](=O)[O-])CC(=O)N2 | 3 (≈ 7.68 µM) | > 64 | 2.5 10^3CFU | 41.1 (≈ 105 µM) | > 30 | 86.2 | 5.72 | 4.04 | 83.3 | 3.57 | 6.47 | 0.5 | 13.1 | 7.95 | 0.417 | 32300 | 54000 | 131 | 595 | 175 | AUC(0-inf) [23]: 669 µg·h/mL; %AUCextra [24]: 25.2%; %AUCextra [25]: 11.2%; MRT inf [26]: 16.4 h; MRT inf [27]: 10.1 h; AUClast/dose [28]: 26110 kg·ng·h/mL/mg; AUClast/dose [29]: 19820 kg·ng·h/mL/mg; Vd [30]: 0.488 L/kg; bioavailability [31]: 63.8%; Stability [37]: Stable; Activity (Mycobacterium marinum [32]): Active; Activity (Mycobacterium marinum [33]): <10 CFU; Activity (Mycobacterium marinum [34]): 80 CFU; Activity (Mycobacterium marinum [35]): 1 10^2CFU; Activity (Mycobacterium marinum [36]): 1.6 10^4CFU; Activity [38]: Active
